Values quoted from earlier work in patent US20070059740A1, “METHOD OF TARGETING A2B ADENOSINE RECEPTOR ANTAGONIST THERAPY” (priority 2005, published 2007).

System: Zucker rats
Settings: A2B adenosine receptor antagonist, reported by LaNoue et al., U.S. Pat. No. 6,060,481

CCCn1c(=O)c2[nH]c(-c3ccc(C=CC(=O)O)cc3)nc2n(CCC)c1=O [1,3-dipropyl-8-(p-acrylic)-phenylxanthine]
glucose tolerance: improves glucose tolerance
